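Following 48 hours of exposure in 96-well plates, responses at five concentrations were used to interpolate endpoints linearly. GI50: concentration for 50% inhibition of growth.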 Active and inactive are the calls of the source. Rule as the data show it: active = GI50 up to about 1.1 µM and inactive = higher.
Tests used:
Experiment in all cases: NCI tumour cell line growth inhibition, 48 h
[1] = test system: NCI/ADR-RES
[2] = test system: MDA-N
[3] = test system: SF-295
[4] = test system: HCT-15
[5] = test system: Hs-578T
[6] = test system: TK-10
[7] = test system: SNB-19
[8] = test system: 786-0
[9] = test system: OVCAR-8
[10] = test system: MCF7
[11] = test system: NCI-H522
[12] = test system: RXF 393
[13] = test system: RPMI-8226
[14] = test system: HCC 2998
[15] = test system: UACC-257
[16] = test system: DU-145
[17] = test system: K562
[18] = test system: SF-268
[19] = test system: HOP-62

Structure (SMILES) | GI50 [1] | GI50 [2] | GI50 [3] | GI50 [4] [µM] | GI50 [5] | GI50 [6] | GI50 [7] | GI50 [8] | GI50 [9] | GI50 [10] | GI50 [11] | GI50 [12] | GI50 [13] | GI50 [14] | GI50 [15] | GI50 [16] | GI50 [17] | GI50 [18] | GI50 [19]
CCOC(=O)c1sc2c(c1OC(=O)c1ccc(Cl)cc1Cl)c(=O)n(-c1ccccc1)c(=S)n2-c1ccccc1 | 9.66 µM (inactive) | 22 µM (inactive) | 6.76 µM (inactive) | 5.08 | 7.48 µM (inactive) | 17 µM (inactive) | > 24 µM (inactive) | 25.6 µM (inactive) | 6.11 µM (inactive) | 24.5 µM (inactive) | 4.74 µM (inactive) | > 100 µM (inactive) | 4.58 µM (inactive) | 24.5 µM (inactive) | 35.3 µM (inactive) | 31.1 µM (inactive) | 3.75 µM (inactive) | 8.02 µM (inactive) | 10 µM (inactive)
O=C1CN(C(=O)C2CCCN2C(=O)C2CCCN2)C(=O)CN1 (centres undefined) | > 100 µM (inactive) | > 100 µM (inactive) | > 100 µM (inactive) | > 100 | > 100 µM (inactive) | > 100 µM (inactive) | > 100 µM (inactive) | > 100 µM (inactive) | > 100 µM (inactive) | > 100 µM (inactive) | > 100 µM (inactive) | > 100 µM (inactive) | > 100 µM (inactive) | > 100 µM (inactive) |  | > 100 µM (inactive) | > 100 µM (inactive) | > 100 µM (inactive) | > 100 µM (inactive)
Cc1nc2c(Cl)cc(Cl)cc2c2c1CCO2 | > 100 µM (inactive) | > 100 µM (inactive) | > 100 µM (inactive) | > 100 | > 100 µM (inactive) | > 100 µM (inactive) | > 100 µM (inactive) | > 100 µM (inactive) | > 100 µM (inactive) | > 100 µM (inactive) | > 100 µM (inactive) | 87.3 µM (inactive) | > 100 µM (inactive) | > 100 µM (inactive) | > 100 µM (inactive) | > 100 µM (inactive) | > 100 µM (inactive) | > 100 µM (inactive) | 
Cc1ccc([N+](=O)[O-])c2c(NCCNC(=O)Cn3ccnc3[N+](=O)[O-])ccnc12 | > 100 µM (inactive) | 69.5 µM (inactive) | 20.5 µM (inactive) | > 100 | 28.3 µM (inactive) | 88.3 µM (inactive) | 28.9 µM (inactive) | 34.8 µM (inactive) | 31.3 µM (inactive) | 18.9 µM (inactive) | 15.5 µM (inactive) | 1.42 µM (inactive) | 96.6 µM (inactive) | 39.6 µM (inactive) | 29.1 µM (inactive) | 57.3 µM (inactive) | 64.1 µM (inactive) | 36.5 µM (inactive) | 20.7 µM (inactive)
